Results taken from patent US9675596B2, “1,2,4-thiazolidin-3-one derivatives and their use in the treatment of cancer” (Baltic Bio AB, priority 2009, dated 2017).

tested on: PC-3 cells; assay: Cell proliferation assay (BrdU incorporation); type: cell-based; details: Homo sapiens, serum-free, 1.25 μM, relative to vehicle control (1 unit), 18 h + 6 h BrdU, read-out: Units of BrdU incorporation
Protocol: PC-3 cancer cell lines were propagated in D-MEM (Gibco 21885) supplemented with 10% Foetal calf serum. 15000 cells per well were seeded in 96 well plates and incubated overnight. The culture media was changed to serum-free D-MEM for 24 h. The culture media was then changed to serum free D-MEM containing either 0.2% DMSO as vehicle control or 0.3, 0.6, 1.2 or 2.5 μM (or 1.25, 2.5, 5, 10 μM (as indicated in Table 1 below)) of the selected compounds of Example 1 to Example 8 in 0.2% DMSO in quadruplicate. After 18 h incubation, BrdU was added according to manufacturer's recommendations. After 6 h incubation in the presence of BrdU, the culture media was removed and BrdU incorporation was measured using “Cell Proliferation ELISA, BrdU colorimetric” Roche (11647229001) according to manufacturer's recommendations.
Proliferation rate of PC-3 cells are reduced by relevant concentrations of the test compounds as measured by BrdU incorporation.

Question: How did the activity at 1.25 µM turn out when `O=c1[nH]s/c(=N\c2ccc(Cl)c(Cl)c2)n1C(c1ccccc1)c1ccccc1` [Example 6, 4-Benzhydryl-5-(3,4-dichlorophenyl)imino-1,2,4-thiadiazolidin-3-one] was run?
Answer: 42%

Question: `O=c1nc(Nc2ccc(Cl)c(Cl)c2)sn1Cc1ccc(F)c(F)c1` [Example 8c, 1,5-(3,4-dichlorophenylamino)-2-(3,4-difluorobenzyl)-[1,2,4]thiadiazol-3-one] was tested. Which activity at 1.25 µM did it give?
Answer: 7%

same assay, conditions: Homo sapiens, serum-free, 2.5 μM, relative to vehicle control (1 unit), 18 h + 6 h BrdU, read-out: Units of BrdU incorporation

Question: `O=C(Nc1nc(=O)n(Cc2ccc(F)cc2)s1)c1ccc(OC(F)(F)F)cc1` [Example 4n, N-[2-[(4-fluorophenyl)methyl]-3-oxo-1,2,4-thiadiazol-5-yl]-4-(trifluoromethoxy)-benzamide] was tested. Which activity at 2.5 µM did it give?
Answer: 17%

Question: Which activity at 2.5 µM does the source give for `COc1ccc(Cn2sc(Nc3ccc(Cl)c(Cl)c3)nc2=O)cc1` [Example 8a, 1,5-(3,4-Dichlorophenylamino)-2-(4-methoxybenzyl)-[1,2,4]thiadiazol-3-one] here?
Answer: 4%

Question: How did the activity at 2.5 µM turn out when `O=c1nc(Nc2ccc(Cl)c(Cl)c2)sn1Cc1ccc(Cl)cc1` [Example 8b, 1,5-(3,4-dichlorophenylamino)-2-(4-chlorobenzyl)-[1,2,4]thiadiazol-3-one] was run?
Answer: 18%

same assay, conditions: Homo sapiens, serum-free, 5 μM, relative to vehicle control (1 unit), 18 h + 6 h BrdU, read-out: Units of BrdU incorporation

Question: For `O=c1[nH]s/c(=N\c2ccc(Cl)c(Cl)c2)n1Cc1ccccc1` [Example 2e], which activity at 5 µM is on record?
Answer: 17%

Question: `O=c1nc(Nc2ccc(C(F)(F)F)cc2)sn1Cc1ccc(F)c(F)c1` [Example 8k, 2-[(3,4-difluorophenyl)methyl]-5-[[4-(trifluoromethyl)phenyl]amino]-1,2,4-thiadiazol-3-one] was tested. Which activity at 5 µM did it give?
Answer: 4%

Question: `O=c1nc(Nc2ccc(C(F)(F)F)cc2)sn1Cc1cccc(F)c1` [Example 8q, 2-[(3-fluorophenyl)methyl]-5-[[4-(trifluoromethyl)phenyl]amino]-1,2,4-thiadiazol-3-one] was tested. Which activity at 5 µM did it give?
Answer: 15%

Question: For `O=c1nc(Nc2ccc(OC(F)(F)F)cc2)sn1Cc1ccc(F)c(F)c1` [Example 8l, 2-[(3,4-difluorophenyl)methyl]-5-[[4-(trifluoromethoxy)phenyl]amino]-1,2,4-thiadiazol-3-one], which activity at 5 µM is on record?
Answer: 10%

Question: How did the activity at 5 µM turn out when `N#Cc1ccc(Nc2nc(=O)n(Cc3ccc(F)c(F)c3)s2)cc1` [Example 8w, 4-[[2-[(3,4-difluorophenyl)methyl]-3-oxo-1,2,4-thiadiazol-5-yl]amino]benzonitrile] was run?
Answer: 28%

Question: For `O=c1nc(Nc2ccc(C(F)(F)F)cc2)sn1CCc1ccccc1` [Example 8r, 2-[phenylethyl]-5-[[4-(trifluoromethyl)phenyl]amino]-1,2,4-thiadiazol-3-one], which activity at 5 µM is on record?
Answer: 58%

Question: With `O=c1nc(Nc2ccc(Cl)c(Cl)c2)sn1CCc1ccccc1` [Example 8f, 5-(3,4-dichlorophenylamino)-2-phenethyl-[1,2,4]thiadiazol-3-one] as the molecule, how does the activity at 5 µM read?
Answer: 8%

Question: For `O=c1nc(Nc2ccc(C(F)(F)F)cc2)sn1Cc1ccc(Cl)cc1` [Example 8p, 2-[(4-chlorophenyl)methyl]-5-[[4-(trifluoromethyl)phenyl]amino]-1,2,4-thiadiazol-3-one], which activity at 5 µM is on record?
Answer: 7%

Question: Which activity at 5 µM does the source give for `O=C(Nc1nc(=O)n(C2(c3ccc(F)cc3)CC2)s1)c1ccc(Cl)c(Cl)c1` [Example 4i, 3,4-dichloro-N-[2-[1-(4-fluorophenyl)cyclopropyl]-3-oxo-1,2,4-thiadiazol-5-yl]benzamide] here?
Answer: 10%

same assay, conditions: Homo sapiens, serum-free, 10 μM, relative to vehicle control (1 unit), 18 h + 6 h BrdU, read-out: Units of BrdU incorporation

Question: Which activity at 10 µM does the source give for `O=C(Nc1nc(=O)n(Cc2ccc(F)cc2)s1)c1c(Cl)cccc1Cl` [Example 4l, 2,6-dichloro-N-[2-[(4-fluorophenyl)methyl]-3-oxo-1,2,4-thiadiazol-5-yl]benzamide] here?
Answer: 20%

Question: Which activity at 10 µM does the source give for `O=c1nc(Nc2ccc(Cl)c(Cl)c2)sn1CCOc1ccccc1` [Example 5b, 5-(3,4-Dichloro-phenylamino)-2-(2-phenoxy-ethyl)-[1,2,4]thiadiazol-3-one] here?
Answer: 14%

Question: With `O=C(Nc1nc(=O)n(Cc2ccc(F)cc2)s1)c1cc(C(F)(F)F)cc(C(F)(F)F)c1` [Example 4o, N-[2-[(4-fluorophenyl)methyl]-3-oxo-1,2,4-thiadiazol-5-yl]-3,5-bis(trifluoromethyl)-benzamide] as the molecule, how does the activity at 10 µM read?
Answer: 28%

Question: How did the activity at 10 µM turn out when `O=C(Nc1nc(=O)n(Cc2ccc(F)cc2)s1)c1ccc(Cl)cc1` [Example 4d, 4-chloro-N-[2-[(4-fluorophenyl)methyl]-3-oxo-1,2,4-thiadiazol-5-yl]benzamide] was run?
Answer: 61.2%

Question: `O=c1[nH]s/c(=N\c2ccc(Cl)c(Cl)c2)n1CCOc1ccccc1` [Example 5a, 5-(3,4-dichlorophenyl)imino-4-(2-phenoxyethyl)-1,2,4-thiadiazolidin-3-one] was tested. Which activity at 10 µM did it give?
Answer: 37%

Question: Which activity at 10 µM does the source give for `CN(CCn1c(=O)[nH]s/c1=N\c1ccc(Cl)c(Cl)c1)c1ccc(Cl)cc1` [Example 2g, 4-[2-[(4-chlorophenyl)-methyl-amino]ethyl]-5-(3,4-dichlorophenyl)imino-1,2,4-thiadiazolidin-3-one] here?
Answer: 14%

Question: With `O=C(Nc1nc(=O)n(Cc2cccc(C(F)(F)F)c2)s1)c1ccc(F)cc1` [Example 4a, 4-fluoro-N-[3-oxo-2-[[3-(trifluoromethyl)phenyl]methyl]-1,2,4-thiadiazol-5-yl]benzamide] as the molecule, how does the activity at 10 µM read?
Answer: 30.9%

Question: For `O=C(Nc1nc(=O)n(Cc2ccc(F)cc2)s1)c1ccc(Cl)cc1Cl` [Example 4m, 2,4-dichloro-N-[2-[(4-fluorophenyl)methyl]-3-oxo-1,2,4-thiadiazol-5-yl]benzamide], which activity at 10 µM is on record?
Answer: 23%

Question: For `O=C(Nc1nc(=O)n(Cc2cccc(C(F)(F)F)c2)s1)c1ccccc1` [Example 3, N-[3-oxo-2-[[3-(trifluoromethyl)phenyl]methyl]-1,2,4-thiadiazol-5-yl]benzamide], which activity at 10 µM is on record?
Answer: 70%

Question: With `O=C(Nc1nc(=O)n(Cc2ccc(F)c(F)c2)s1)c1ccc(Cl)cc1` [Example 4c, 4-chloro-N-[2-[(3,4-difluorophenyl)methyl]-3-oxo-1,2,4-thiadiazol-5-yl]benzamide] as the molecule, how does the activity at 10 µM read?
Answer: 39.3%

Question: For `O=C(Nc1nc(=O)n(Cc2ccc(F)cc2)s1)c1ccc(F)c(F)c1` [Example 4p, 3,4-difluoro-N-[2-[(4-fluorophenyl)methyl]-3-oxo-1,2,4-thiadiazol-5-yl]benzamide], which activity at 10 µM is on record?
Answer: 26%

Question: For `O=C(Nc1nc(=O)n(Cc2ccc(Cl)cc2)s1)c1ccc(Cl)cc1` [Example 4e, 4-chloro-N-[2-[(4-chlorophenyl)methyl]-3-oxo-1,2,4-thiadiazol-5-yl]benzamide], which activity at 10 µM is on record?
Answer: 35.5%

Question: With `O=C(Cc1ccc(F)cc1)Nc1nc(=O)n(Cc2cccc(C(F)(F)F)c2)s1` [Example 4b, 2-(4-fluorophenyl)-N-[3-oxo-2-[[3-(trifluoromethyl)phenyl]methyl]-1,2,4-thiadiazol-5-yl]acetamide] as the molecule, how does the activity at 10 µM read?
Answer: 72%
